Assay results from the supplement of paper PMC10307832.

Columns and labels:
Assay in all cases: relative viability (nuclei count vs DMSO), 5 days (fraction); higher = more cells survive
[1] = test system: NCI-H2228
Outline: (§1)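 The day after seeding in 1536-well plates, lung cancer cell lines were treated by pin tool with a single drug, or with a fixed anchor-drug dose together with five library-drug doses (not always all listed) in √10 steps. After 5 days, a combined fix-and-stain solution (final 0.05% Triton X-100, 1% formaldehyde, 1 ug/ml Hoechst) was added. Nuclei counted on 4× images gave relative viability as treated counts over vehicle counts, reported as the median of duplicate plates.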

[2] = test system: RERF-LC-KJ
Outline: as §1

[3] = test system: HCC-78
Outline: as §1

[4] = test system: NCI-H596
Outline: as §1

[5] = test system: NCI-H3122
Outline: as §1

[6] = test system: SK-MES-1
Outline: as §1

[7] = test system: NCI-H1993
Outline: as §1

[8] = test system: NCI-H1734
Outline: as §1

[9] = test system: NCI-H1355
Outline: as §1

[10] = test system: NCI-H2085
Outline: as §1

[11] = test system: NCI-H2347
Outline: as §1

[12] = test system: NCI-H2405
Outline: as §1

[13] = test system: NCI-H838
Outline: as §1

[14] = test system: LC-2-ad
Outline: as §1

[15] = test system: ChaGo-K-1
Outline: as §1

[16] = test system: HCC-366
Outline: as §1

[17] = test system: CAL-12T
Outline: as §1

[18] = test system: HOP-62
Outline: as §1

[19] = test system: NCI-H2009
Outline: as §1

[20] = test system: EMC-BAC-2
Outline: as §1

[21] = test system: PC-14
Outline: as §1

[22] = test system: SW 1573
Outline: as §1

[23] = test system: LK-2
Outline: as §1

O=C(O)CCCCC(CCSCc1ccccc1)SCc1ccccc1 (stereo not given) [CPI-613] + Cc1cc(Nc2cc(N3CCN(C)CC3)nc(Sc3ccc(NC(=O)C4CC4)cc3)n2)n[nH]1 [Tozasertib] (partner 0.1 µM)
relative viability ([1]; first compound 5 µM): 0.304
relative viability ([1]; first compound 15.81 µM): 0.204
relative viability ([1]; first compound 50 µM): 0.236
relative viability ([1]; first compound 158.11 µM): 0.146
relative viability ([1]; first compound 500 µM): 0.112
relative viability ([2]; first compound 5 µM): 0.536
relative viability ([2]; first compound 15.81 µM): 0.513
relative viability ([2]; first compound 50 µM): 0.454
relative viability ([2]; first compound 158.11 µM): 0.188
relative viability ([2]; first compound 500 µM): 0.0899
relative viability ([3]; first compound 5 µM): 0.46
relative viability ([3]; first compound 15.81 µM): 0.402
relative viability ([3]; first compound 50 µM): 0.408
relative viability ([3]; first compound 158.11 µM): 0.433
relative viability ([3]; first compound 500 µM): 0.405
relative viability ([4]; first compound 5 µM): 1.08
relative viability ([4]; first compound 15.81 µM): 0.923
relative viability ([4]; first compound 50 µM): 0.966
relative viability ([4]; first compound 158.11 µM): 0.595
relative viability ([4]; first compound 500 µM): 0.0638
relative viability ([5]; first compound 5 µM): 0.357
relative viability ([5]; first compound 15.81 µM): 0.363
relative viability ([5]; first compound 50 µM): 0.348
relative viability ([5]; first compound 158.11 µM): 0.211
relative viability ([5]; first compound 500 µM): 0.0108
relative viability ([6]; first compound 5 µM): 0.895
relative viability ([6]; first compound 15.81 µM): 0.783
relative viability ([6]; first compound 50 µM): 0.753
relative viability ([6]; first compound 158.11 µM): 0.138
relative viability ([6]; first compound 500 µM): 0.106
relative viability ([7]; first compound 5 µM): 0.631
relative viability ([7]; first compound 15.81 µM): 0.669
relative viability ([7]; first compound 50 µM): 0.559
relative viability ([7]; first compound 158.11 µM): 0.507
relative viability ([7]; first compound 500 µM): 0.426
relative viability ([8]; first compound 5 µM): 0.235
relative viability ([8]; first compound 15.81 µM): 0.24
relative viability ([8]; first compound 50 µM): 0.291
relative viability ([8]; first compound 158.11 µM): 0.152
relative viability ([8]; first compound 500 µM): 0.118
relative viability ([9]; first compound 5 µM): 0.541
relative viability ([9]; first compound 15.81 µM): 0.512
relative viability ([9]; first compound 50 µM): 0.508
relative viability ([9]; first compound 158.11 µM): 0.314
relative viability ([9]; first compound 500 µM): 0.112
relative viability ([10]; first compound 5 µM): 0.769
relative viability ([10]; first compound 15.81 µM): 0.683
relative viability ([10]; first compound 50 µM): 0.734
relative viability ([10]; first compound 158.11 µM): 0.386
relative viability ([10]; first compound 500 µM): 0.105
relative viability ([11]; first compound 5 µM): 0.526
relative viability ([11]; first compound 15.81 µM): 0.561
relative viability ([11]; first compound 50 µM): 0.566
relative viability ([11]; first compound 158.11 µM): 0.552
relative viability ([11]; first compound 500 µM): 0.524
relative viability ([12]; first compound 5 µM): 0.75
relative viability ([12]; first compound 15.81 µM): 0.616
relative viability ([12]; first compound 50 µM): 0.625
relative viability ([12]; first compound 158.11 µM): 0.554
relative viability ([12]; first compound 500 µM): 0.533
relative viability ([13]; first compound 5 µM): 0.271
relative viability ([13]; first compound 15.81 µM): 0.252
relative viability ([13]; first compound 50 µM): 0.249
relative viability ([13]; first compound 158.11 µM): 0.194
relative viability ([13]; first compound 500 µM): 0.104
relative viability ([14]; first compound 5 µM): 0.45
relative viability ([14]; first compound 15.81 µM): 0.398
relative viability ([14]; first compound 50 µM): 0.459
relative viability ([14]; first compound 158.11 µM): 0.267
relative viability ([14]; first compound 500 µM): 0.0577
relative viability ([15]; first compound 5 µM): 0.207
relative viability ([15]; first compound 15.81 µM): 0.185
relative viability ([15]; first compound 50 µM): 0.234
relative viability ([15]; first compound 158.11 µM): 0.148
relative viability ([15]; first compound 500 µM): 0.16
relative viability ([16]; first compound 5 µM): 0.0925
relative viability ([16]; first compound 15.81 µM): 0.33
relative viability ([16]; first compound 50 µM): 0.156
relative viability ([16]; first compound 158.11 µM): 0.0259
relative viability ([16]; first compound 500 µM): 0.0032
relative viability ([17]; first compound 5 µM): 0.284
relative viability ([17]; first compound 15.81 µM): 0.253
relative viability ([17]; first compound 50 µM): 0.256
relative viability ([17]; first compound 158.11 µM): 0.0605
relative viability ([17]; first compound 500 µM): 0.0057
relative viability ([18]; first compound 5 µM): 0.383
relative viability ([18]; first compound 15.81 µM): 0.305
relative viability ([18]; first compound 50 µM): 0.286
relative viability ([18]; first compound 158.11 µM): 0.191
relative viability ([18]; first compound 500 µM): 0.0544
relative viability ([19]; first compound 5 µM): 0.67
relative viability ([19]; first compound 15.81 µM): 0.696
relative viability ([19]; first compound 50 µM): 0.699
relative viability ([19]; first compound 158.11 µM): 0.136
relative viability ([19]; first compound 500 µM): 0.0212
relative viability ([20]; first compound 5 µM): 0.333
relative viability ([20]; first compound 15.81 µM): 0.287
relative viability ([20]; first compound 50 µM): 0.284
relative viability ([20]; first compound 158.11 µM): 0.124
relative viability ([20]; first compound 500 µM): 0.0704
relative viability ([21]; first compound 5 µM): 0.556
relative viability ([21]; first compound 15.81 µM): 0.531
relative viability ([21]; first compound 50 µM): 0.553
relative viability ([21]; first compound 158.11 µM): 0.502
relative viability ([21]; first compound 500 µM): 0.536
relative viability ([22]; first compound 5 µM): 0.232
relative viability ([22]; first compound 15.81 µM): 0.196
relative viability ([22]; first compound 50 µM): 0.15
relative viability ([22]; first compound 158.11 µM): 0.103
relative viability ([22]; first compound 500 µM): 0.0651
relative viability ([23]; first compound 5 µM): 0.173
relative viability ([23]; first compound 15.81 µM): 0.162
relative viability ([23]; first compound 50 µM): 0.189
relative viability ([23]; first compound 158.11 µM): 0.181
relative viability ([23]; first compound 500 µM): 0.139
